Reference: patent US7232831B2, “Tetrahydro-β-carboline compounds and use thereof” (MediQuest Therapeutics, Inc., priority 2004, dated 2007)

Test system: rats
Assay: Forced Swimming Test (Depression Test Model)
Format: in vivo
Details: delivered orally before swim test, all three doses 0.3, 3 and 30 mg/kg, observed for 6 minutes
Source text: Forced Swimming Test (Depression Test Model)—Total immobility time of rats can be assessed during a forced swimming test Porsolt, R. D., Anton, G., Blavet, N., Jalfre, M. Behavioral despair in rats, a new model sensitive to antidepressant treatments. Eur. J Pharmacol. 1978, 47, 379-391. A shortened immobility period reflects anti-depressant-like effects of a test compound. MQT compounds were delivered orally to rats before the swim test.

SMILES | Total immobility time during forced swimming test
NCCCNC(=O)C1CCCN(C(=O)C2Cc3c([nH]c4ccccc34)CN2)C1 (centres unmarked) [MQT 1] | reduction in immobility
NCCCNCC1CCCN(CC2Cc3c([nH]c4ccccc34)CN2)C1 (centres unmarked) [MQT 2] | reduction in immobility
